US20140094424A1, “MICROBICIDAL COMPOSITIONS AND METHODS OF PRODUCTION USE THEREOF” (priority 2011, published 2014)

Legend:
[1] = tested on: Aspergillus glaucus- DMO (Q); test: MBC (minimum bactericidal concentration) test in Wash NEXT reagent; type: cell-based
Description: (§1) The stock organisms were thawed and subbed prior to beginning the MBC test. Molds were subbed to SDA plates one week before, and the bacteria were subbed to TAT agar plates 24 hours prior to the start of the test. All plates were incubated at 32 degrees C.
(§2) For the molds, each organism was inoculated into 40 ml sterile saline in a centrifuge tube to create a density of MacFarland #5. Two serial dilutions of 1:100 were then made, resulting in 10^−2 and 10^−4 concentrations. Each dilution was vortexed before it was sampled, and sterile Eppendorf pipette tips were used to make each transfer. The 10^−4 dilution was spiral plated to yield the initial inoculum concentration.
(§3) MBC trays were set up with the prepared test reagent. Using a Matrix pipettor, 100 μl aliquots of reagent were distributed into the wells, diluting the amount of preservative from 100% to 10% increments, using unpreserved reagent as the diluent. In one row, 100% non-preserved reagent acted as a positive control and served as a benchmark for a full mat of growth. In well #12H, 100 μl unpreserved reagent was pipetted, and this well was not inoculated with organisms, as it served as the negative control. Once all of the trays were prepared, the prepared bacteria/mold suspensions were poured into the MBC inoculating trays. These were placed onto the reagent trays, and 0.01 ml inoculum was introduced into the 100 μl of reagent in each well.
(§4) This was done by dipping a sterile cotton swab into each well, and absorbing all of the liquid in the well. The swab was rolled onto a TAT agar plate ensuring that the entire swab touches the agar. Plates ware incubated at 32 degrees C. for 48 hours to 7 days, depending on the organism. Observations for growth were performed by a scoring matrix using + for a full mat, +/− for some growth, a numerical value for an actual colony count, and—for no growth.
(§5) Below are tables that contain the data obtained in Example 1. The MBC test is scored by (+) indicating a full grown mat of organisms, equivalent to the organisms in the unpreserved reagent. (+/−) indicates there is some kill evident disturbing that mat or bringing the quantities down to an almost countable level. An actual number is the actual number of colonies growing at that concentration of preservative. (−) indicates no growth found. The MBC trays were stored at room temperature for the entire test.
(§6) The materials and methods and analysis of the MBC test were the same as in Example 1.

[2] = tested on: Penicillium notatum-KMO (R); test: as above; type: cell-based; design: key to MBC test growth score: number = actual colony count; + full mat, − no growth
Description: as §1, §2, §3, §4, §5, §6

Measured: MBC test growth score

gentamicin
+/−: [1]; 10% preservative, 48 hour | [1]; 10% preservative, 72 hour | [1]; 10% preservative, 7 day | [1]; 10% preservative, 14 day | [1]; 20% preservative, 48 hour | [1]; 20% preservative, 72 hour | [1]; 20% preservative, 7 day | [1]; 20% preservative, 14 day | [1]; 30% preservative, 48 hour | [1]; 30% preservative, 72 hour | [1]; 30% preservative, 7 day | [1]; 40% preservative, 48 hour | [1]; 40% preservative, 72 hour | [1]; 40% preservative, 7 day | [1]; 50% preservative, 48 hour | [1]; 50% preservative, 72 hour | [1]; 60% preservative, 48 hour | [1]; 60% preservative, 72 hour | [1]; 70% preservative, 48 hour | [1]; 70% preservative, 72 hour | [1]; 80% preservative, 48 hour | [1]; 80% preservative, 72 hour | [1]; 90% preservative, 48 hour | [1]; 100% preservative, 48 hour | [2]; 10% preservative, 48 hour | [2]; 10% preservative, 72 hour | [2]; 10% preservative, 7 day | [2]; 10% preservative, 14 day | [2]; 20% preservative, 48 hour | [2]; 20% preservative, 72 hour | [2]; 20% preservative, 7 day | [2]; 20% preservative, 14 day | [2]; 30% preservative, 48 hour | [2]; 30% preservative, 72 hour | [2]; 30% preservative, 7 day | [2]; 30% preservative, 14 day | [2]; 40% preservative, 48 hour | [2]; 40% preservative, 72 hour | [2]; 40% preservative, 7 day | [2]; 50% preservative, 48 hour | [2]; 50% preservative, 72 hour | [2]; 50% preservative, 7 day | [2]; 60% preservative, 48 hour | [2]; 60% preservative, 72 hour | [2]; 60% preservative, 7 day | [2]; 70% preservative, 48 hour | [2]; 70% preservative, 72 hour | [2]; 80% preservative, 48 hour | [2]; 80% preservative, 72 hour | [2]; 90% preservative, 48 hour | [2]; 90% preservative, 72 hour | [2]; 100% preservative, 48 hour | [2]; 100% preservative, 72 hour
25: [1]; 60% preservative, 7 day | [2]; 50% preservative, 14 day
29: [1]; 50% preservative, 7 day
20: [1]; 70% preservative, 14 day
4: [1]; 100% preservative, 14 day
26: [1]; 60% preservative, 14 day
28: [1]; 50% preservative, 14 day | [2]; 40% preservative, 14 day
14: [1]; 80% preservative, 14 day
36: [1]; 30% preservative, 14 day
7: [2]; 100% preservative, 7 day
5: [1]; 100% preservative, 7 day
35: [1]; 40% preservative, 14 day
6: [2]; 100% preservative, 14 day
22: [1]; 90% preservative, 72 hour
18: [1]; 100% preservative, 72 hour | [2]; 70% preservative, 14 day
11: [2]; 90% preservative, 7 day
9: [1]; 90% preservative, 14 day | [2]; 90% preservative, 14 day
+: [1]; 10% preservative, 8 hour | [1]; 10% preservative, 24 hour | [1]; 20% preservative, 8 hour | [1]; 20% preservative, 24 hour | [1]; 30% preservative, 8 hour | [1]; 30% preservative, 24 hour | [1]; 40% preservative, 8 hour | [1]; 40% preservative, 24 hour | [1]; 50% preservative, 8 hour | [1]; 50% preservative, 24 hour | [1]; 60% preservative, 8 hour | [1]; 60% preservative, 24 hour | [1]; 70% preservative, 8 hour | [1]; 70% preservative, 24 hour | [1]; 80% preservative, 8 hour | [1]; 80% preservative, 24 hour | [1]; 90% preservative, 8 hour | [1]; 90% preservative, 24 hour | [1]; 100% preservative, 8 hour | [1]; 100% preservative, 24 hour | [2]; 10% preservative, 8 hour | [2]; 10% preservative, 24 hour | [2]; 20% preservative, 8 hour | [2]; 20% preservative, 24 hour | [2]; 30% preservative, 8 hour | [2]; 30% preservative, 24 hour | [2]; 40% preservative, 8 hour | [2]; 40% preservative, 24 hour | [2]; 50% preservative, 8 hour | [2]; 50% preservative, 24 hour | [2]; 60% preservative, 8 hour | [2]; 60% preservative, 24 hour | [2]; 70% preservative, 8 hour | [2]; 70% preservative, 24 hour | [2]; 80% preservative, 8 hour | [2]; 80% preservative, 24 hour | [2]; 90% preservative, 8 hour | [2]; 90% preservative, 24 hour | [2]; 100% preservative, 8 hour | [2]; 100% preservative, 24 hour
21: [1]; 70% preservative, 7 day
23: [2]; 60% preservative, 14 day | [2]; 70% preservative, 7 day
16: [1]; 80% preservative, 7 day | [2]; 80% preservative, 7 day
10: [1]; 90% preservative, 7 day
12: [2]; 80% preservative, 14 day
